Test results taken from PubChem BioAssay AID179 (DTP/NCI, 2004).
Activity calls are given as the source filed them.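 Rule for the calls: active = compounds giving half or more protection of infected cells from virus-caused growth loss, again on retest; inactive = the rest.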 Where a SMILES comes first, the peptide text is derived from it. Bridges are numbered along the chain shown (N, C = ends). Roman numbers before positions name the chains, in order.

Tested on: CEM cells HIV-1 protection, formazan growth assay
Assay: NCI AIDS Antiviral Assay
Conditions: for IC50: measured here: growth of uninfected CEM cells
Procedure, shortened: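 Human CEM cells, uninfected and HIV-1-infected, received five drug concentrations, and growth was read by soluble formazan assay. Compounds giving at least 50% protection were retested; reproducible 100% protection defined confirmed active.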

SMILES | EC50 [µM] | IC50 [µM] | outcome
S=C1c2ccc(Cl)cc2-n2cnnc2C2CSCN12 (stereo not drawn) | > 200 | > 200 | –
O=c1/c(=C/c2ccccn2)sc2nc3cc4c(cc3n12)OCCO4 | > 200 | > 200 | –
NCC1CCC(C(=O)O)CC1 (stereo not drawn) | > 200 | > 200 | –
COC(OC)[C@@H]1OC[C@H](n2ccc(=O)[nH]c2=O)[C@H]1O | > 200 | > 200 | –
Cc1ccc(/C=C2/Sc3scc(-c4ccccc4)[n+]3C2=O)cc1 | > 200 | 47.9 | –
Cc1ccc(S(=O)(=O)OC2COCOC2C2OCOC3COCOC32)cc1 (stereo not drawn) | > 200 | > 200 | –
CON(C)C(=O)[C@H]1C[C@@]1(C)CO | > 200 | > 200 | –
O=C(O)[C@@H]1CSC(c2ccccc2F)N1 (stereo partly drawn) | > 200 | > 200 | –
CC(C)(C)OC(=O)C1CC[C@@H](CC(=O)Oc2ccc([N+](=O)[O-])cc2)N1 (stereo partly drawn) | > 200 | > 200 | –
O=[N+]([O-])C=C(c1ccc(Cl)cc1)c1ccc(Cl)cc1 | – | – | inactive
O=[N+]([O-])c1ccc2c(N=Nc3ccc4ccccc4c3O)c(O)cc(S(=O)(=O)O)c2c1 | > 200 | 27.5 | –
COc1ccc(-n2[nH]c(=O)n(C)c2=O)cc1 | > 200 | > 200 | –
CCOC(=O)c1ccc(CS(=O)(=O)c2ccccc2C(=O)OCC)c([N+](=O)[O-])c1 | > 85.1 | > 85.1 | –
COC(=O)C(=O)C(C(=O)C(=O)Nc1nc2ccc(C)cc2s1)c1nc2ccc([N+](=O)[O-])cc2[nH]c1=O (stereo not drawn) | > 132 | 126 | –
CSC(SC)=C(C(=O)c1ccc(Cl)cc1)n1c(=O)sc2cc(Br)ccc21 | > 200 | 12.3 | –
O=C1N2Cc3c4ccc5c3CN3C(=O)N6Cc7c(ccc(c7CN1C6(c1ccccc1)C23c1ccccc1)OCCOCCOc1cc(Br)c(Br)cc1OCCOCCO4)OCCOCCOc1cc(Br)c(Br)cc1OCCOCCO5 (stereo not drawn) | > 0.55 | > 0.55 | –
Cc1nn(C(=O)CC(=O)Nc2ccc(Cl)cc2)c(C)c1N=Nc1ccccc1C(=O)O | > 42.7 | > 42.7 | –
Cc1c(-c2ccccc2)sc(N)c1C#N | – | – | inactive
COc1cc2cc3c4c(cc(OC)c(OC)c4c2cc1OC)CCN3C(=O)CCCC(=O)O | > 200 | 110 | –
CCOC(=O)C(C)(C(=O)OCC)/C(Cl)=C\Cl | > 200 | > 200 | –
O=[N+]([O-])c1ccc(-n2nc3ccc4nonc4c3n2)cc1 | > 200 | > 200 | –

SMILES | EC50 [µM] | IC50 [µM] | outcome
N#CC1C(C#N)C2CC1C1N=NN(c3ccccc3)C21 (stereo not drawn) | > 200 | > 200 | –
CC(C)C(NC(=O)C(N)CSSCC(N)C(=O)NC(C(=O)O)C(C)C)C(=O)O (stereo not drawn) (I: H-Cys-Val-OH / II: H-Cys-Val-OH; disulfide I:1-II:1; configuration not given here) | – | – | inactive
C=CC(C)(C)C1Oc2cc(O)ccc2C(=O)C1c1ccc(OC)c(OC)c1O (stereo not drawn) | > 200 | 3.09 | –
CCOC(=O)NNC(=O)NC12CC3CC(CC(C3)C1)C2 | – | – | inactive
NCCN1C(=O)c2ccccc2C1(O)c1ccccc1 (stereo not drawn) | > 200 | > 200 | –
[N-]=[N+]=NS(=O)(=O)c1cccc([N+](=O)[O-])c1 | – | – | inactive
O=[N+]([O-])c1cc(C(F)(F)F)ccc1S(=O)(=O)N[C@@H]1CCCC[C@H]1NS(=O)(=O)c1ccc(C(F)(F)F)cc1[N+](=O)[O-] | > 200 | 3.98 | –
Nc1[nH][nH]c(=O)c1N=O | > 200 | > 200 | –
c1ccc(C2=NOC3COc4ccccc4OCC23)cc1 (stereo not drawn) | > 93.3 | > 93.3 | –
c1ccc2c3c([nH]c2c1)[C@@H]1CCN2CCC[C@@H]2N1CC3 | > 200 | 97.7 | –
Cc1c(Cc2ccccc2)n(COCCCN2C(=O)c3ccccc3C2=O)c(=O)[nH]c1=O | > 200 | 26.3 | –
N#C/C(=C/c1ccsc1)C(=O)c1ccccc1 | > 110 | > 110 | –
O=C1/C(=C/c2cccc(O)c2)SC(=S)N1/C=C\c1nc2ccccc2[nH]c1=O | > 200 | 81.3 | –
O=S(=O)(O)c1cc(O)c2c(O)cc(S(=O)(=O)O)c(N=Nc3ccc(/C=C/c4ccc(N=Nc5c(S(=O)(=O)O)cc(O)c6c(O)cc(S(=O)(=O)O)cc56)cc4S(=O)(=O)O)c(S(=O)(=O)O)c3)c2c1 | 15.5 | 75.9 | –
CCCCCCCCCCCCCCCCP(=O)(O)OP(=O)(O)OCC1OC(n2cnc3c(N)ncnc32)C(O)C1O (stereo not drawn) | > 100 | 19.5 | –
O=C1C(=O)c2ccccc2C(O)=C1C(C1=C(O)c2ccccc2C(=O)C1=O)c1ccc(Cl)cc1Cl | > 200 | 16.2 | –
CC1CCCc2c(CC3CC(=O)NC(=O)C3)nc(N)nc21 (stereo not drawn) | > 200 | > 200 | –
Cc1ccc(S(=O)(=O)c2ccc(C)cc2[N+](=O)[O-])c([N+](=O)[O-])c1 | > 40.7 | > 40.7 | –
CCOC(=O)CC(NC(=O)c1ccc(N=NN(C)C)cc1)C(=O)OCC (stereo not drawn) | > 186 | > 186 | –
Nc1cnn2cnnc2c1 | > 200 | > 200 | –
Cn1nc2ccc([N+](=O)[O-])cc2[n+]1[O-] | > 200 | 155 | –

SMILES | EC50 [µM] | IC50 [µM] | outcome
COc1ccccc1CN1CC(C)N(N=Cc2c3c(O)c4c(O)c(C)c5c(c4c2O)C(=O)C(C)(O/C=C/C(OC)C(C)C(OC(C)=O)C(C)C(O)C(C)C(O)C(C)/C=C/C=C(\C)C(=O)N3)O5)C(C)C1 (stereo not drawn) | > 200 | 7.76 | –
NC(=O)c1ccc2c(c1)-c1nc-2nc2[n-]c(nc3nc(nc4[n-]c(n1)c1ccc(C(N)=O)cc41)-c1ccc(C(N)=O)cc1-3)c1ccc(C(N)=O)cc21.[Co+2] | > 9.77 | 6.61 | –
COc1cc2c[n+](C)c3c4cc(OC)c(OC(C)C)cc4ccc3c2cc1OC | > 295 | 13.5 | –
CN1C(=O)c2cccc3c([N+](=O)[O-])ccc(c23)C1=O | > 20.4 | 7.76 | –
C=C(C)[C@@H]1CC[C@]2(C(=O)O)CC[C@]3(C)[C@H](CC[C@@H]4[C@@]5(C)CC[C@H](C(=O)/C=C/c6ccc(O)cc6)C(C)(C)[C@@H]5CC[C@]43C)[C@@H]12 | > 200 | 2.34 | –
COC1(OC)CC(CO)(CNc2nc(N)nc(Cl)c2C=O)C1 | > 162 | 14.1 | –
CCCN(CCC)CCc1cc(C(C)=O)n(S(=O)(=O)c2ccc(C)cc2)c1 | > 589 | 263 | –
O=C(/C=C/c1ccc(OCCSCCCCCCCCCCSCCOc2ccc(/C=C/C(=O)c3ccc(Cl)cc3)cc2)cc1)c1ccc(Cl)cc1 | > 12.9 | 12 | –
COc1ccc2c(c1)Oc1cc(O)ccc1[C@@H]2c1ccccc1C(=O)NC(C)c1ccccc1 (stereo partly drawn) | > 15.8 | 14.5 | –
CCCN(CCC)CC(=O)Nc1cccc(Cl)c1C | > 200 | 63.1 | –
CC(=O)NNC(=S)/N=C/c1c(O)cc(C)oc1=O | > 200 | > 200 | –
O=C(NNS(=O)(=O)c1ccccc1)c1csc(NC(=S)NC2CCCCC2)n1 | > 72.4 | 28.8 | –
CCOC(=O)C1(N=O)CCCCC1=O (stereo not drawn) | > 200 | > 200 | –
O=C(CCNC(=O)OCc1ccccc1)OCCCNC(=O)OCc1ccccc1 | > 200 | > 200 | –
NC(=O)c1[nH]cnc1/N=N/SCC(N)C(=O)O (stereo not drawn) | > 200 | 0.794 | –
O=c1cc(O)c2ccc(O)cc2o1 | > 40.7 | > 40.7 | –
COC(=O)[C@@H](NC(=O)N(CCC#N)CCNc1ccccc1)C(C)C | > 200 | > 200 | –
O=Nc1cc(S(=O)(=O)O)c2ccccc2c1O | > 200 | > 200 | –
O=c1oc(-c2cccc(-c3nc4c(c(=O)o3)CCS4)c2)nc2c1CCS2 | > 200 | – | –
COc1cc(/C=C/C(=O)c2cc(Cl)cc(Cl)c2O)cc(OC)c1OC | > 200 | 2.04 | –
NS(=O)(=O)c1ccc(NNc2c3ccccc3nc3c(C(=O)Nc4ccc(S(=O)(=O)Nc5ncccn5)cc4)cccc23)cc1 | > 50.1 | 26.9 | –

SMILES | EC50 [µM] | IC50 [µM] | outcome
O=C(N=Nc1ccccc1Cl)NNc1ccccc1Cl | > 200 | 31.6 | –
Cc1ncc([N+](=O)[O-])n1CCn1ccnc1[N+](=O)[O-] | > 200 | > 200 | –
COc1ccc(N=C(C)c2ccncc2)cc1 | > 200 | 10.5 | –
O=C(O)C12CC3CC(CC(F)(C3)C1)C2 | > 912 | > 912 | –
CC[C@]1(Cc2ccc(OC)c(OC)c2)C=[N+]([O-])O[C@H](OCc2ccccc2)[C@@H]1OC(C)=O | > 200 | 38 | –
CCCCCCCCC1=C(OC)C(=O)c2cccnc2C1=O | – | – | inactive
Clc1cccc(-c2sc(-c3ccsc3)cc2Cc2ccsc2)c1 | – | – | inactive
BrCc1ccc(CBr)c2c1-c1c(CBr)ccc3ccc(CBr)c-2c13 | > 200 | 22.9 | –
CC(C)c1cc2c(cc1S(=O)(=O)O)[C@@]1(C)CCC[C@@](C)(C(=O)O)C1CC2 (stereo partly drawn) | > 200 | > 200 | –
Cc1cc2oc(=O)[nH]c(=S)c2c(C)c1C | > 17 | > 17 | –
O=S1(=O)OCCOS(=O)(=O)C1I | > 759 | 132 | –
NNC(=O)c1nnc(NN)[nH]c1=O | > 200 | > 200 | –
CCOC(=O)NC(Nc1ccc(F)c(F)c1)(C(=O)OCC)C(F)(F)F (stereo not drawn) | > 200 | > 200 | –
O=S(=O)(c1ccccc1)N1CCC1c1ccccc1 (stereo not drawn) | – | – | inactive
CC(C)(C)OC(=O)N/N=C(/N)c1ccccc1 | > 200 | > 200 | –
C=CCC1(CC(=O)O)CC=CCC12OCCO2 (stereo not drawn) | > 200 | > 200 | –
COc1cc(N)c2c(c1)SC(c1ccccc1)C(=O)N2 (stereo not drawn) | > 200 | 120 | –
CN=c1ncn(C)c2ncn(C/C=C(\C)CC[C@@]3(C)C(C)CCC4(O)C3CCCC4(C)C)c12 (stereo partly drawn) | – | – | inactive
Cc1cccc(C)c1NC(=O)/C(Cc1nc2ccc([N+](=O)[O-])cc2[nH]c1=O)=N\NC(N)=O | > 417 | 126 | –
COc1ccc(CNc2cnc3ccc(N)cc3n2)cc1 | > 129 | 77.6 | –
NC1=Nc2ccccc2Sc2nc3ccccc3n21 | > 200 | 8.71 | –
